Reference: patent US10258980B2, “Pure chelation process” (C LAB PHARMA INTERNATIONAL, S.A., priority 2014, dated 2019)

What was measured:
[1] = equal amounts of chelated copper mixed with water
[2] = dry powder rubbed on the surface of skin

Structure (SMILES): O=C(O)c1cccnc1.[Cu] [copper nicotinic acid]
- copper content by EDS, dry powder form (dry powder): 22.90%
- copper content by EDS after sample is wetted (wet sample): 21.7%
- change of EDS spectra after wetting (wet versus dry sample): did not change significantly
- time to change to the oxidized blue color [1]: a few minutes
- disappearance from the surface of skin when rubbed, dry powder [2]: disappeared from the surface of the skin
